# Test results as given in the PolyMetriX glass transition set.
# ± gives the standard deviation of the reports.
row,SMILES,glass transition temperature
1,*C(=O)Nc1ccc(Oc2ccc(Oc3ccc(NC(=O)c4ccc5c(c4)C(=O)N(c4ccc(Oc6ccc(C7(c8ccc(Oc9ccc(N%10C(=O)c%11ccc(*)cc%11C%10=O)cc9)cc8)NC(=O)c8ccccc87)cc6)cc4)C5=O)cc3)cc2)cc1 (repeat unit),300.00 °C
2,*Oc1cccc(Oc2ccc(C(=O)c3ccc(NC(=O)c4ccc(C(=O)Nc5ccc(C(=O)c6ccc(*)cc6)cc5)cc4)cc3)cc2)c1 (repeat unit),190.00 °C
3,*CC(O)CN(*)c1ccc(/N=N/c2ccc(Cl)cc2)cc1 (repeat unit),160.00 °C
4,*Oc1c(C)cc(C(C)(C)c2cc(C)c(OC(*)=O)c(Cl)c2)cc1Cl (repeat unit),154.00 °C
5,*c1ccc(Oc2ccc(C(=O)c3ccc(Cc4ccc(C(=O)c5ccc(Oc6ccc(-c7nc(-c8ccccc8)[nH]c7*)cc6)cc5)cc4)cc3)cc2)cc1 (repeat unit),231.00 °C
6,*/C=C/c1ccc(N(CC)Cc2ccccc2CN(CC)c2ccc(/C=C/c3ccc(/C=C(\C#N)S(=O)(=O)/C(C#N)=C/c4ccc(*)s4)s3)cc2)cc1 (repeat unit),178.00 °C
7,*CCCCCCNC(=O)CCCC(=O)O* (repeat unit),-18.00 °C
8,*CCN(*)C(=O)c1cc(F)c(F)c(F)c1F (repeat unit),97.00 °C
9,*/C(=C/c1cc(OC)c(/C=C(/c2ccc(*)cc2)c2ccc(C(F)(F)F)cc2)cc1OC)c1ccc(C(F)(F)F)cc1 (repeat unit),208.00 °C
10,*CC(*)(C)C(=O)OCC(F)(F)C(F)(F)C(F)(F)C(F)F (repeat unit),47.00 °C
11,*CC(*)n1ccc2ccccc21 (repeat unit),19.00 °C
12,*C(*)C(=O)OC (repeat unit),85.8 °C
13,*O[Si](*)(C)CCCCCCCC (repeat unit),-92.00 °C
14,*c1cccc(P(=O)(c2cccc(-n3c(=O)c4c(-c5cc(C(F)(F)F)cc(C(F)(F)F)c5)c5c(=O)n(*)c(=O)c5c(-c5cc(C(F)(F)F)cc(C(F)(F)F)c5)c4c3=O)c2)c2cc(C(F)(F)F)cc(C(F)(F)F)c2)c1 (repeat unit),293.00 °C
15,*CC(*)(C)C(=O)OCCO (repeat unit) [Poly(2-hydroxyethyl methacrylate)],84.03 ± 10 °C
16,*c1cccc(N2C(=O)c3cccc(Oc4cccc(Oc5cccc6c5C(=O)N(*)C6=O)c4)c3C2=O)c1 (repeat unit),241.00 °C
17,*Oc1cc(Br)c(C(C)(C)c2c(Br)cc(OC(*)=O)cc2Br)c(Br)c1 (repeat unit),267.00 °C
18,*Cc1ccc2oc(=O)c(C(=O)Nc3ccc(Oc4ccc(Oc5ccc(NC(=O)c6cc7cc(*)ccc7oc6=O)cc5)cc4)cc3)cc2c1 (repeat unit),290.00 °C

row,SMILES,glass transition temperature
1,*Oc1ccc(C(C)(C)c2ccc(Oc3ccc(C(=O)Nc4ccc(NC(=O)c5ccc(*)cc5)cc4)cc3)cc2)cc1 (repeat unit),230.00 °C
2,*CCCCCCCCCCOc1ccc(-c2cc(-c3ccc(-c4ccccc4)cc3)c(-c3ccc(NC(=O)c4ccc(C(=O)Nc5ccc(-c6c(-c7ccc(-c8ccccc8)cc7)cc(-c7ccc(O*)cc7)cc6-c6ccc(-c7ccccc7)cc6)cc5)cc4)cc3)c(-c3ccc(-c4ccccc4)cc3)c2)cc1 (repeat unit),111.00 °C
3,*Oc1ccc(C(C)(C)c2ccc(OC(=O)c3ccc(Oc4ccc(C(*)=O)cc4)cc3)cc2)cc1 (repeat unit),220.00 °C
4,*O[Si](*)(CCCOCCOCCOCCOCCOC)CCCOCCOCCOCCOCCOC (repeat unit),-69.80 °C
5,*Oc1ccc(CC(NC(=O)CCc2ccc(OC(=O)COCC(*)=O)cc2)C(=O)OCC)cc1 (repeat unit),79.00 °C
6,*NC1CCC(CC2CCC(NC(=O)CCCCCCCCCCC(*)=O)CC2)CC1 (repeat unit),142.00 °C
7,*c1ccc(Oc2ccc(C(c3ccc(Oc4ccc(-c5cccc(*)n5)cc4C(F)(F)F)cc3)(C(F)(F)F)C(F)(F)F)cc2)c(C(F)(F)F)c1 (repeat unit),153.00 °C
8,*Oc1ccc2cc(OC(=O)c3ccc(-c4ccc(C(*)=O)cc4)cc3-c3ccccc3)ccc2c1 (repeat unit),125.00 °C
9,*CC(=C)COCC(=C)COC(=O)O* (repeat unit),70.50 °C
10,*O[Si](*)(C)CCCOc1ccc(/N=N/c2ccc(S(=O)(=O)O)cc2)cc1 (repeat unit),9.20 °C
11,*C(=O)Nc1ccc(Oc2ccc(Oc3ccc(NC(=O)c4ccc5c(c4)C(=O)N(c4ccc(Oc6ccc(C7(c8ccc(Oc9ccc(N%10C(=O)c%11ccc(*)cc%11C%10=O)cc9)cc8)CC8CC7C7CCCC87)cc6)cc4)C5=O)cc3)c(C(C)(C)C)c2)cc1 (repeat unit),275.00 °C
12,*c1ccc(NC(=O)CCCCC(=O)Nc2ccc(S(*)(=O)=O)cc2)cc1 (repeat unit),194.00 °C
13,*CC(*)OC(=O)c1ccc(OC(C)=O)cc1 (repeat unit),76.00 °C
14,*CC(*)(CC(=O)OCCCC)C(=O)OCCCC (repeat unit),24.00 °C
15,*CCC1CC(*)C2C3CC(C12)C(C)(C(=O)OC)C3 (repeat unit),146.00 °C
16,*O[Si](O[Si](C)(C)c1ccc([Si](*)(C)C)cc1)(c1ccccc1)c1ccccc1 (repeat unit),0.00 °C
17,*c1cccc(P(C)(=O)c2cccc(N3C(=O)c4ccc(NC(=O)OCCOc5ccc(C(C)(C)c6ccc(OCCOC(=O)Nc7ccc8c(c7)C(=O)N(*)C8=O)cc6)cc5)cc4C3=O)c2)c1 (repeat unit),211.00 °C

# Continued, values first:
row,glass transition temperature,SMILES
1,50.00 °C,*CCOCCOCCOC(=O)c1ccc(-c2ccc(-c3ccc(C(=O)O*)cc3)cc2)cc1 (repeat unit)
2,217.00 °C,*CC1CC2CC1C1CCC(CN3C(=O)c4ccc(C(=O)c5ccc6c(c5)C(=O)N(*)C6=O)cc4C3=O)C21 (repeat unit)
3,78.80 °C,*c1ccc2c(c1)C(CCCCCC)(CCCCCC)c1cc(-c3cc(CCCCCC)c(*)cc3CCCCCC)ccc1-2 (repeat unit)
4,94.50 °C,*CC(*)(CC(=O)Oc1ccc(OCCC)cc1)C(=O)Oc1ccc(OCCC)cc1 (repeat unit)
5,44.00 °C,*CCOC(=O)NCCCCCCCCCNC(=O)O* (repeat unit)
6,61.00 °C,*CCCCCCOC(=O)c1cc(OCCCCCCOc2ccc(/N=N/c3ccc(C#N)cc3)cc2)cc(C(=O)OCCCCCCN2C(=O)c3ccc(Oc4ccc5c(c4)C(=O)N(*)C5=O)cc3C2=O)c1 (repeat unit)
7,290.00 °C,*C(=O)c1ccc2c(c1)C(=O)N(c1ccc(Cc3ccccc3N3C(=O)c4ccc(*)cc4C3=O)cc1)C2=O (repeat unit)
8,38.00 °C,*Oc1cc(OC(=O)c2ccc(OCCCC)cc2)c(OC(=O)CCCCCCCC(*)=O)cc1OC(=O)c1ccc(OCCCC)cc1 (repeat unit)
9,116.00 °C,*CCCCCCNC(=O)c1ccc(C(=O)N*)c(Oc2ccc(Br)cc2)c1 (repeat unit)
10,140.00 °C,*c1ccc(NC(=O)c2ccc(OCCOCCOCCOCCOc3ccc(C(=O)Nc4ccc5[nH]c(*)nc5c4)cc3)cc2)cc1 (repeat unit)
11,290.00 °C,*c1cccc(-c2ccc3[nH]c(S(=O)(=O)c4nc5ccc(*)cc5[nH]4)nc3c2)c1 (repeat unit)
12,267.00 °C,*C(=O)c1ccc2c(c1)C(=O)N(c1ccc(Oc3ccc(C(C)(C)c4ccccc4)cc3)c(N3C(=O)c4ccc(*)cc4C3=O)c1)C2=O (repeat unit)
13,240.00 °C,*C(=O)c1ccc2c(c1)C(=O)N(C1CCC(CC3CCC(N4C(=O)c5ccc(*)cc5C4=O)C(C)C3)CC1C)C2=O (repeat unit)
14,235.00 °C,*C(=O)c1ccc2c(c1)C(=O)N(c1cccc(C(O[Si](C)(C)O[Si](C)(C)O[Si](C)(C)C)c3cccc(N4C(=O)c5ccc(*)cc5C4=O)c3)c1)C2=O (repeat unit)
15,249.00 °C,*/C(C#N)=C(\C#N)N1C(=O)c2ccc(C(=O)c3ccc(-c4ccc5c(c4)C(=O)N(*)C5=O)cc3)cc2C1=O (repeat unit)
16,63.00 °C,*/C=C(\C#N)C(=O)OCCCCCCOC(=O)/C(C#N)=C/c1ccc2c(c1)c1cc(*)ccc1n2CCCCCCCCCCCn1c2ccccc2c2ccccc21 (repeat unit)
17,59.60 °C,*c1ccc(-c2sc(-c3cc(CCCCCCCCCCCC)c(*)s3)cc2CCCCCCCCCCCC)cc1 (repeat unit)
18,348.00 °C,*c1ccc(Oc2ccc(N3C(=O)c4cc(-c5ccc([Si](C)(C)C)cc5)c(-c5cc6c(cc5-c5ccc([Si](C)(C)C)cc5)C(=O)N(*)C6=O)cc4C3=O)cc2)cc1 (repeat unit)
19,88.00 °C,*CCCCCCNC(=O)CC(C)c1ccc(C(C)CC(=O)N*)cc1 (repeat unit)
20,293.00 °C,*c1ccc(Oc2cc(C(C)(C)C)c(Oc3ccc(N4C(=O)c5ccc(-c6ccc7c(c6)C(=O)N(*)C7=O)cc5C4=O)cc3)cc2C(C)(C)C)cc1 (repeat unit)
21,23.00 °C,*Oc1cc(OC(=O)c2ccc(OCCCCCCCCCCCC)cc2)c(OC(=O)CCCC(*)=O)cc1OC(=O)c1ccc(OCCCCCCCCCCCC)cc1 (repeat unit)
22,24.00 °C,*CC(*)(C)C(=O)OCCCCCCCCCCOc1ccc2cc(C(=O)Oc3ccccc3)ccc2c1 (repeat unit)
23,360.00 °C,*c1cccc(S(=O)(=O)c2cccc(-n3c(=O)c4cc5c(=O)n(*)c(=O)c5cc4c3=O)c2)c1 (repeat unit)
24,101.00 °C,*C(=O)OCCOCCOC(=O)c1ccc(N2C(=O)c3ccc(*)cc3C2=O)cc1 (repeat unit)
25,123.7 °C,*c1ccc2c(c1)C(=O)N(c1ccc(Oc3ccc(N4C(=O)c5ccc(C(C)(C)CCCCCCCCC(*)(C)C)cc5C4=O)cc3)cc1)C2=O (repeat unit)
26,32.70 °C,*=Cc1cc(OCCCCCCCC)c(/C=N/c2ccc(N=*)cc2)cc1OCCCCCCCC (repeat unit)
27,225.00 °C,*C(=O)Oc1ccc(C(C)(C)c2ccc(OC(=O)c3ccc4c(c3)C(=O)N(c3ccc(O)c(N5C(=O)c6ccc(*)cc6C5=O)c3)C4=O)cc2)cc1 (repeat unit)
